Series [1] can be described thus: in vivo. The note with it: both, ICR, mouse, in vivo, po. How it is done:
(§1) Specific pathogens free ICR mice of 4 weeks old (12 females and 12 males; 3 females and 3 males/dosage group) were raised in an animal chamber controlled with the temperature of 22±3° C., humidity of 55±10%, and illumination of 12L/12D cycle. The mice were acclimated for a week before the test. Feed for a test animal (CJ Corp., for mouse and rat) and water were supplied after sterilization and taken by the mice without any restriction.
(§2) The amount of 0.04 ml (100 mg/kg), 0.2 ml (500 mg/kg), and 0.4 ml (1,000 mg/kg) per mouse weight of 20 g was dosed individually to the mice by oral administration. The samples were dosed only one time, and adverse effect and mortality were observed during 7 days after the dosing as follows.
(§3) Additionally, on seventh day after the administration, the animals were sacrificed and dissected to examine internal organs with naked eye. Weight loss due to (E)-3,4-di-fluorobenzaldehyde O-benzoyloxime or (E)-2,3-di-fluorobenzaldehyde O-morpholine-4-carbonyloxime was observed by measuring weight changes at the intervals of 1 day since the dosage.

In series [2] the target is T1, Lp-PLA2 (Homo sapiens, UniProt Q13093).
T1 construct: LDL was isolated from the plasma by discontinuous density gradient ultra centrifugation; from tissue; host or cells: LDL fraction of human blood plasma from normal lipidemic volunteers
T1 sequence (Q13093 22-441): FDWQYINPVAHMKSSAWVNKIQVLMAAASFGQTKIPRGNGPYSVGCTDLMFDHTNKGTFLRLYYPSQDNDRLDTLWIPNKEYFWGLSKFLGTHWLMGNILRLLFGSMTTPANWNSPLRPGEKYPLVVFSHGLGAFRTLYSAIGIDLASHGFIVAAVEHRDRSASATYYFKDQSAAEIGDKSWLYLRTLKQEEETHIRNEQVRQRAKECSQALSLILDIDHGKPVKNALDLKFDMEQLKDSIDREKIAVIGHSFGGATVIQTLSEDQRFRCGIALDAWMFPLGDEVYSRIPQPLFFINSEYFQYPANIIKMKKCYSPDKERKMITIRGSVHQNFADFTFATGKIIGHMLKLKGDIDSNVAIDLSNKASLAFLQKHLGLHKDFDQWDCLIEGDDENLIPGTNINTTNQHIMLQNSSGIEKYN
Briefly: Measurement of Lp-PLA2 (PAF-AH) activity using [3H]PAF substrate and human LDL as enzyme source. It is filed as biochemical. As to conditions: Lp-PLA2 from human LDL, average of two test results, read-out: Inhibition rate at 25 μM.
Experimental: Blood was collected from normal lipidemic volunteers. EDTA was used as anticoagulant (1.5 mg/ml of blood). […] LDL was isolated from the plasma by discontinuous density gradient ultra centrifugation. Briefly, the plasma was centrifuged at 100,000×g at 4° C. for 20 hours. […] The LDL fraction in the top of the tube was collected and dialyzed overnight against three changes of phosphate buffer (pH 7.4), containing NaCl (150 mM), in the dark at 4° C. to remove NaBr and EDTA. The LDL in PBS was stored at 4° C. and used within 4 weeks. The purity of the fraction was confirmed by agarose gel electrophoresis and SDS-PAGE. Concentration of LDL protein was determined using bovine serum albumin (BSA) as a standard.
Lp-PLA2, the enzyme is also known as platelet-activating factor acetylhydrolase (PAF-AH), activity was measured using [^3H]PAF as a substrate. […] The reaction mixture, containing 20 μL of diluted human LDL (Lp-PLA2 source, 4-5 μg protein), 120 μL of PBS-EDTA, and 20 μL of test sample, was preincubated at 37° C. for 15 min. The reaction was initiated by the addition of 40 μL micelle substrate (0.1 μCi, final conc. 80 μM PAF) to measure initial rates of PAF-AH activity. […] The raw counts were corrected for background using a nonenzyme-containing blank and were expressed as nanomoles of PAF degraded per hour per milligram of protein.

Series [3] has as its system ICR mice. Briefly: in vivo. The note with it: single oral dose up to 1,000 mg/kg, ICR mice, 7 days. How it is done: as §1, §2, §3

A value given as a limit tells only on which side of the number the result lay.

What is called LD50 is the dose at which mortality reaches 50%. Low values mean a more toxic substance, high ones a less toxic substance. `O=C(O/N=C/c1ccc(F)c(F)c1)c1ccccc1` [Example 21, (E)-3,4-di-fluorobenzaldehyde O-benzoyloxime]: in series [1], the median lethal dose (LD50) at 7 days was greater than 1000 mg/kg.

In general, inhibition refers to the change of the read-out against control, counted positive when it falls. Regarding `O=C(O/N=C(\OC(=O)c1ccccc1)c1ccccc1)c1ccccc1` [Example 16, (E)-1-benzoic acid-benzaldehyde O-benzoyloxime], the inhibition at 25 µM in series [2] is 29%.

In series [1], `O=C(O/N=C/c1cccc(F)c1F)N1CCOCC1` [Example 30, (E)-2,3-di-fluorobenzaldehyde O-morpholine-4-carbonyloxime] yielded an LD50 at 7 days greater than 1000 mg/kg. In series [3], the “toxicity (clinical symptoms, weight change, blood test, biochemical test of blood, necropsy)” value was “did not show any toxicity”.

Source of the values: US8399662B2, “O-acyloxime derivatives, preparation method thereof, and pharmaceutical composition containing the same for prevention and treatment of cardiovascular disease” (Korea Research Institute of Bioscience and Biotechnology, priority 2004, dated 2013).
